Test results from patent publication US12514828B2, “Methods of permeabilizing the blood brain barrier” (UNIVERSITY OF SOUTHERN CALIFORNIA, priority 2018, dated 2026).
Entries after “also recorded” stand apart in the source; their conditions may differ.

What was measured:
[1] = test system: Raji's-Luc/GFP human B-cell lymphoma cells; test: Lym-1 CAR T cell delivery in intracranial Raji lymphoma xenografts (survival); assay type: in vivo, NSG mice; details: IV Lym-1 CAR T (5×10e6) + IC NEO100 (0.3% v/v=492 μM); control mice died within 15-20 days; P=0.0029
Protocol: 50,000 (5×10^4) human B-cell lymphoma cells, Raji's-Luc/GFP, were injected intracranially into NSG mice.
5 days post the tumor cells injection, the optical imaging was performed to confirm the tumor uptake (100% tumor uptake).
There were 3 experimental groups: (1) Control; (2) IV CAR T (5×10e6); (3) IV CAR T (5×10e6)+IC NEO100 (0.3% v/v=492 μM)
Body weight was monitored for the physical condition of the mice during the treatment. Tumor growth was monitored by optical imaging.

GL261 mouse glioma [2] = test: NEO100-mediated human CAR T cell delivery to brain and tumor (CD3 IHC); assay type: in vivo
Protocol: 2-million CD19 and Lym-1 human CAR T cells that were suspended in 0.9% saline working solution to be used for the IV injection with and without intracardiac NEO100.
Preparation of the working solution for intracardiac injection of NEO100: 3% NEO100 suspended in 0.9% saline.
40 μl 3% NEO100 in saline was injected slowly to complete intracardiac application. Direct cell injection into the heart could cause local microinfarctions if the cells are clumpy during injection, hemopericardium and death as a consequence. This is why ultrasound guided injections with a small 30 G needle is important to minimize these potential adverse effects, (1) enabling the visualization of the needle tract to ensure that the needle enters the left ventricle only, and (2) subsequent monitoring of the heart through not only ECG but visualization of heart wall function after the injection. The fine gauge of the needle ensures that the cells are not clumpy when the cells are injected through intracardiac puncture.
Immediate after the completion of NEO100 injection, 2 million human CAR T cells in 40 μl PBS were injected through tail vein catheter that pre-primed with saline solution. To avoid the possible adverse effects mentioned above by direct cell injection through intracardiac application, we set up 2-step procedures for the study.
Step 1: 40 μl 3% NEO100 in saline was injected slowly to complete intracardiac application. This procedure allows NEO100 to exert the function of BBB disruption.
Step 2: 2-million CAR T cells were injected by IV through tail vein catheter.
Brain Perfusion—In order to rule out the residue left over inside the blood vessel after euthanizing, the testing animals were perfused by 10 ml 0.9% normal saline solution through left ventricle to flush out the blood. […] Confocal Imaging—[…] fresh frozen sections were made by cryostasis machine and pasted on microslide. Coverslip was mounted on the brain section by DAPI mounting medium before Confocal examination. […]

[3] = test system: Madin-Darby Canine Kidney (MDCK) cells; test: In vitro BBB tight junction model (Transwell, TEER, fluorescence antibody); assay type: cell-based
Protocol: The labelled components are Transwell chemotaxis chamber; upper chamber; porous membrane and lower chamber. Transwell culture chambers (pore size: 0.8 μm). Madin-Darby Canine Kidney (MDCK) cells are epithelial cells. TEER: transepithelial/transendothelial electrical resistance. Fluorescence Ab: Alexa Fluo® 488; donkey anti-rat IgG (H+L). Fluorescence was measured in the lower chamber in about 120 minutes.

[4] = test system: recurrent malignant gliomas; details: intranasal delivery, cited from earlier work
GL261 mouse glioma [5] = test: Anti-mouse PD-1 antibody therapeutic efficacy (survival) in intracranial syngeneic mouse glioma; assay type: in vivo, C57 BL/6 mice
Protocol: 100,000 GL261 mouse glioma cells were injected intracranially to immune competent mice, C57 BL/6. 7 days post the injection, the mice were randomly divided into 4 experimental groups, and initiated the treatment at the same day. • Group 1. Control: IV and Intracardiac injection of 40 μl Saline Solution (5). • Group 2. Antibody treated mice: IV 40 μl Anti-mouse PD1 antibody at the dose of 2.5 • mg/kg (5). • Group 3. NEO100 treated mice: Intracardiac injection of 40 μl 5% NEO100 (5). • Group 4. Combination of NEO100 and antibody treated mice: Intracardiac 40 μl 5% NEO100, followed by IV 40 μl Anti-PD1 antibody at the dose of 2.5 mg/kg (6).
Animal survival data were plotted using the Kaplan-Meier method. One-way ANOVA was used for the overall test for differences. Grouped comparisons were performed using the Tukey method of adjusting for multiple comparisons. Logrank (Mantel-Cox) test was applied for the comparison of survival curves. A statistical evaluation result of p<0.05 was considered significant.

U-87 human glioma cells = test: Intracranial glioma model in athymic nu/nu mice (survival); assay type: in vivo; details: applicant's prior experience; untreated mice about four weeks
Protocol: Male athymic nu/nu mice (6-8 weeks old) will be employed for this research. Rodent subcutaneous/intracranial glioma model can be established as follows. Six to eight week old athymic nu/nu mice will be anesthetized with intraperitoneal injections of ketamine (80 mg/kg) and xylazine (10 mg/kg). For the intracranial glioma model, the mice are placed into a stereotactic head frame (Harvard Apparatus), and local anesthetic (0.2 cc of 0.25% xylocaine) is injected into the right frontal scalp. A knife blade is used to make a small incision, and a drill bit is used to make a small opening in the right frontal skull at the level of the coronal suture. Glioma cells (1×10^5 cells/10 μl), for example, U-87 human glioma cells, will be loaded into a calibrated Hamilton syringe. The needle tip will be placed precisely into the right frontal lobe of the […], and cells will be slowly injected using a control push from the Hamilton syringe. After the injection is finished, the syringe and needle will be removed, and the wound closed. […]
Brains will be harvested, and tumor size determined. […]

Protocol for blood-brain-barrier: Brain Perfusion—Before euthanizing, the testing animals was perfused by 0.9% normal saline solution through left ventricle. The brain was removed and buried in OCT, and stored in −80° C. for further analysis.
Ultrasound Guided Intracardiac Puncture—Briefly, the animals were anesthetized using 2% isoflurane gas and fixed on the platform for intracardiac puncture. To penetrate the syringe needle into intercoastal space promptly through skin and muscle layers into the left ventricle under the guidance of ultrasound imaging. An indication of successful insertion of the needle into the left ventricle is the reflux of fresh arterial blood (pink color in contrast to dark red venous blood) into the syringe.
The extravasation of stained albumin from circulation could be visualized.
Different concentration of NE0100 (40 μ1 in 0.9% saline) was tested through intracardiac puncture, followed by immediate intravenous application of 2% Evans Blue (40 μ1 in volume). The brain was removed after perfusion.
Experimental groups include: • IC 2% EB only • IC 20% ethanol+2% EB • IC 20% ethanol+2% EB+5% NEO100 • IC 20% ethanol+5% NEO100, followed by 2% EB tail vein injection • IV 20% ethanol+2% EB+5% NEO100 • IV 20% ethanol+2% EB
The immune competent C57 BL/6 mice was injected with 5% NEO100 (v/v) through intracardiac puncture (IC), followed by intravenous injection of 2% Evans Blue at different time points, such as 0, 5 min, 15 min, 30 min, 1-hour, 2-hour, 3-hour, and 4 hours, post the IC injection.
Intracardiac Injection (IC): 5% NEO100. • 2. Followed by intravenous injection (IV) of 2% EB at different times. • 3. The testing animals were euthanized one hour after the IV injection.

SMILES	animal survival (Kaplan Meier) [1]	severe adverse effect or animal death (GL261 mouse glioma [2]; 3% NEO100 intracardiac injection)	penetration of human CAR T cells (anti-CD19 and Lym-1) into the tumor formed inside the brain (GL261 mouse glioma [2]; 40 μl 3% NEO100 intracardiac, then 2 million CAR T cells IV, compared to IV only, 6 h)	CD3 positive cells in the normal parts of brain (GL261 mouse glioma [2]; intracardiac NEO100 plus IV CAR T cells vs IV injection only)	disturbance of the BBB (Evans Blue uptake into brain) (blood-brain-barrier; NEO100 1:1000 dilution (6.5 mM 40 μl) intracardiac, then 2% Evans Blue IV)	dopamine delivery to the brain (blood-brain-barrier; intracardiac NEO100)	opening of the BBB for antibodies (blood-brain-barrier; intracardiac injection (equivalent to intra-arterial injection for mice))	tight junction in the brain (blood-brain-barrier; intracardiac injection of 5% NEO100 compared to normal brain)	safety of intraarterial administration (blood-brain-barrier; mouse, in vivo)	penetration of fluorescence labelled antibody across in vitro BBB model ([3]; Alexa Fluo 488 donkey anti-rat IgG, fluorescence in lower chamber at about 120 minutes)	TEER (transepithelial/transendothelial electrical resistance) ([3]; NEO100 2 mM)	patients achieving 6 month progression-free period ([4]; 140 treated patients) [%]	disease response [4]	side effects from the treatment [4]	disease remission ([4]; several patients) [years]	animal survival, combination (GL261 mouse glioma [5]; 40 μl 5% NEO100 intracardiac followed by anti-PD1 antibody 2.5 mg/kg IV)	animal survival, single agent (GL261 mouse glioma [5]; NEO100 alone (40 μl 5% intracardiac) or anti-PD1 alone (2.5 mg/kg IV))	survival after implantation (U-87 human glioma cells)
C=C(C)[C@@H]1CC=C(CO)CC1 [NEO100, perillyl alcohol]	survived	does not cause any severe adverse effect or animal death	greatly increase the penetration into the tumor	More CD3 positive cells were found in the normal parts of brain	still effective to disturb the BBB	mediated dopamine delivery through the breached blood-brain-barrier	could open the BBB for antibodies	breached dramatically	safe to administer intraarterially	transiently allow labeled antibodies to transiently cross it; also recorded: enhanced penetration of fluorescence labelled antibody	decreased TEER	50	regression or stabilization of the disease	almost non-existent	≤ 3	still alive	all the controls were dead	
Cn1nnc2c(C(N)=O)ncn2c1=O [TMZ, temozolomide]																		up to 8 weeks
